The results in this text go back to patent US20220241249A1, “PHARMACEUTICAL COMPOSITION AND KIT CONTAINING NOVEL PENAM DERIVATIVE OR SALT THEREOF AND ONE OR MORE COMPOUNDS SELECTED FROM beta-LACTAMASE INHIBITORY COMPOUND AND ANTIBACTERIAL COMPOUND OR SALTS THEREOF” (priority 2019, published 2022).

In brackets after ≈: the same amount, converted by molar mass.

Assay [1] relates to multidrug-resistant Pseudomonas aeruginosa strain (S-2838 strain). Nature of the assay: Test for protection against systemic infection in mouse with multidrug-resistant Pseudomonas aeruginosa. It is filed as in vivo. The settings on record: sc, 72 h, read-out: survival rate 3 days after the inoculation with bacteria. On the procedure: As mice, ICR male SPF mice (4 weeks old: 10 mice per group) were used. Clinically isolated multidrug-resistant Pseudomonas aeruginosa strain (S-2838 strain) cultured overnight on a Mueller-Hinton agar plate at 37° C. was cultured on a cation-adjusted Mueller Hinton medium for 5 hours, and then diluted 20-fold with a 10% mucin/phosphate buffer, thereby preparing an inoculum. An infection was induced by intraperitoneally inoculating the mice with the inoculum at 0.5 mL (about 10^6 CFU/mouse). Each test compound was dissolved in physiological saline, and 1 hour after the infection, the compound was subcutaneously administered once to the mice at 40 mg/kg. The control group was administered with the same amount of physiological saline used as a vehicle. The number of surviving mice was recorded 3 days after the infection.
A test for protection against systemic infection in a mouse with multidrug-resistant Pseudomonas aeruginosa was performed in the same manner as in Test Example 2.

The test system of assay [2] is NDM-1-containing Klebsiella pneumoniae strain (Y-1007). Nature of the assay: Antibacterial activity evaluation test, MIC by broth microdilution (CLSI). It is filed as cell-based. The settings on record: Klebsiella pneumoniae. The procedure, abridged: (§1)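 MIC (μg/mL) = lowest drug concentration showing no visible bacterial growth after 16–20 h at 35° C. in cation-adjusted Mueller Hinton broth. Inoculum: agar-grown cells at 0.5 McFarland, diluted 10-fold.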
In general terms: Broth dilution looks for growth in wells or tubes with falling amounts of substance.

In assay [3] the test system is Pseudomonas aeruginosa strain ATCC27853. Described as above. It is filed as cell-based. The settings on record: Pseudomonas aeruginosa, ATCC27853. The procedure, abridged:
as §1

The subject of assay [4] is GES-19 and GES-20-containing Pseudomonas aeruginosa strain (S-3759). The assay is described as above. It is filed as cell-based. The settings on record: Pseudomonas aeruginosa. The procedure, abridged:
as §1

Assay [5] has as its system OXA-48-containing Klebsiella pneumoniae strain (Y-1062). The assay is described as above. It is filed as cell-based. The settings on record: Klebsiella pneumoniae. The procedure, abridged:
as §1

Assay [6] relates to VIM-2-containing Pseudomonas aeruginosa strain (S-3779). The description is as above. It is filed as cell-based. The settings on record: Pseudomonas aeruginosa. The procedure, abridged:
as §1

For assay [7], the system named is AmpC-derepressed Pseudomonas aeruginosa mutant strain (S-3028). The assay is described as above. It is filed as cell-based. The settings on record: Pseudomonas aeruginosa. The procedure, abridged: as §1
The test system of assay [8] is KPC-2-containing Klebsiella pneumoniae strain (Y-995). The description is as above. It is filed as cell-based. The settings on record: Klebsiella pneumoniae. The procedure, abridged:
as §1

Assay [9] relates to IMP-1-containing Pseudomonas aeruginosa strain (S-2838). The description is as above. The settings on record: Pseudomonas aeruginosa. It is filed as cell-based. The procedure, abridged: as §1
Assay [10] deals with CTX-M-15-containing Escherichia coli strain (TK-1747). The description is as above. It is filed as cell-based. The settings on record: Escherichia coli. The procedure, abridged:
as §1

As a reminder, the MIC is the lowest concentration found to suppress growth. The low end stands for greater potency, the high end for weaker potency.

`Nc1nc(/C(=N/OC2(C(=O)O)CCC2)C(=O)N[C@@H]2C(=O)N3C[C@@](C(=O)O)(N4CCN(NC(=O)C(=O)c5ccc(O)c(O)c5Cl)C4=O)S[C@H]23)cs1` [Example 19, (3R,5R,6R)-6-((Z)-2-(2-aminothiazol-4-yl)-2-((-1-carboxycyclobutoxy)imino)acetamido)-3-(3-(2-(2-chloro-3,4-dihydroxyphenyl)-2-oxoacetamido)-2-oxoimidazolidin-1-yl)-7-oxo-4-thia-1-azabicyclo[3.2.0]heptane-3-carboxylic acid]: the responders at 40 mg/kg in assay [1] is at least 90%. Also, the MIC was under 0.06 µg/mL in assay [2]; 0.25 µg/mL (≈ 0.332 µM) in assay [3]; 0.25 µg/mL (≈ 0.332 µM) in assay [4]; 0.12 µg/mL (≈ 0.159 µM) in assay [5]; 0.25 µg/mL (≈ 0.332 µM) in assay [6]; 2 µg/mL (≈ 2.66 µM) in assay [7]. Besides, the values for the minimal inhibitory concentration (MIC) in [8], in assay [9] and in [10] were 0.25 µg/mL (≈ 0.332 µM), 0.25 µg/mL (≈ 0.332 µM) and 0.5 µg/mL (≈ 0.664 µM), respectively.
On to `CC(C)(O/N=C(\C(=O)N[C@@H]1C(=O)N2C[C@@](C(=O)O)(N3CCN(NC(=O)C(=O)c4ccc(O)c(O)c4Cl)C3=O)S[C@H]12)c1nsc(N)n1)C(=O)O` [Example 23, (3R,5R,6R)-6-((Z)-2-(5-amino-1,2,4-thiadiazol-3-yl)-2-(((2-carboxypropan-2-yl)oxy)imino)acetamido)-3-(3-(2-(2-chloro-3,4-dihydroxyphenyl)-2-oxoacetamido)-2-oxoimidazolidin-1-yl)-7-oxo-4-thia-1-azabicyclo[3.2.0]heptane-3-carboxylic acid], for which, in assay [1], the responders at 40 mg/kg was at least 90%. Further, the MIC in assay [2] was under 0.06 µg/mL; in assay [3], 0.25 µg/mL (≈ 0.337 µM); in assay [4], 1 µg/mL (≈ 1.35 µM); in assay [5], 0.5 µg/mL (≈ 0.674 µM); in [6], 0.25 µg/mL (≈ 0.337 µM); in assay [7], 0.5 µg/mL (≈ 0.674 µM). Besides, the MIC was found to be 0.25 µg/mL (≈ 0.337 µM) in assay [8], 1 µg/mL (≈ 1.35 µM) in assay [9] and 0.25 µg/mL (≈ 0.337 µM) in assay [10].
For `CC(C)(O/N=C(\C(=O)NC1C(=O)N2C[C@@](C(=O)O)(N3CCN(NC(=O)CCNC(=O)/C(=N\O)c4ccc(O)c(O)c4Cl)C3=O)S[C@H]12)c1csc(N)n1)C(=O)O` (stereo partly shown) [Example 122], in assay [1], the responders at 40 mg/kg is at least 90%. In addition, the MIC is under 0.06 µg/mL in [2]; 1 µg/mL (≈ 1.21 µM) in assay [3]; 2 µg/mL (≈ 2.42 µM) in assay [4]; 1 µg/mL (≈ 1.21 µM) in assay [5]; 2 µg/mL (≈ 2.42 µM) in assay [6]; 2 µg/mL (≈ 2.42 µM) in assay [7]. For the same molecule, the MIC in assay [8] is 0.5 µg/mL (≈ 0.604 µM); in [9], 2 µg/mL (≈ 2.42 µM); in [10], 0.5 µg/mL (≈ 0.604 µM).
Regarding `Nc1nc(/C(=N/OC2(C(=O)O)CC2)C(=O)N[C@@H]2C(=O)N3C[C@@](C(=O)O)(N4CCN(NC(=O)CCNC(=O)C(=O)c5ccc(O)c(O)c5Cl)C4=O)S[C@H]23)cs1` [Example 31, (3R,5R,6R)-6-((Z)-2-(2-aminothiazol-4-yl)-2-((1-carboxycyclopropoxy)imino)acetamido)-3-(3-(3-(2-(2-chloro-3,4-dihydroxyphenyl)-2-oxoacetamido)propanamido)-2-oxoimidazolidin-1-yl)-7-oxo-4-thia-1-azabicyclo[3.2.0]heptane-3-carboxylic acid], in assay [1], the responders at 40 mg/kg was at least 90%. Also, the MIC in [2] is 0.12 µg/mL (≈ 0.148 µM); in assay [3], 0.25 µg/mL (≈ 0.309 µM); in assay [4] it was 0.5 µg/mL (≈ 0.617 µM); in assay [5], 1 µg/mL (≈ 1.23 µM); in assay [6], 0.25 µg/mL (≈ 0.309 µM); in assay [7], under 0.06 µg/mL. Besides, the minimal inhibitory concentration (MIC) in assay [8] was determined as 0.12 µg/mL (≈ 0.148 µM); in assay [9], 1 µg/mL (≈ 1.23 µM); in [10], 1 µg/mL (≈ 1.23 µM).
